Usually IC50 stands for the midpoint of a concentration-inhibition curve.

IC50 data for 28 compounds are collected here from ChEMBL document CHEMBL5604062, “ASAP - ZIKV NS2B-NS3 protease fluorescence dose response” (2024).

Test [1] has as its target T1, Nonstructural protein 3 (Zika virus, UniProt A0A024AXB9). The test can be described thus: Functional biochemical assay to identify treatments for viral infectious disease that targets Zika NS2B-NS3 protease. Utilizing a direct enzyme activity measurement method, reading the fluorescence intensity is used to characterize the relative potency of inhibitors as IC50. Synthetic construct has been made based on Zika virus (strain PRVABC59) by Centre for Medicines Discovery, University of Oxford, and the assay has been performed by Stanford University.The protocol is publicly available: dx.doi.org/10.17504/protocols.io.x54v9r83zv3e/v1.

Test [2] addresses T1, Nonstructural protein 3. The test can be described thus: Functional biochemical assay to identify treatments for viral infectious disease that targets Zika NS2B-NS3 protease. Utilizing a direct enzyme activity measurement method, reading the fluorescence intensity is used to characterize the relative potency of inhibitors as IC50. Set-up: species or system PRVABC59.
The target in test [3] is T1, Nonstructural protein 3. The test is described as follows: Functional biochemical assay to identify treatments for viral infectious disease that targets Zika NS2B-NS3 protease. Utilizing a direct enzyme activity measurement method, reading the fluorescence intensity is used to characterize the relative potency of inhibitors as IC50. Synthetic construct has been made based on Zika virus (strain PRVABC59) by Centre for Medicines Discovery, University of Oxford, and the assay has been performed by Enamine biological services, Bienta Ltd.The protocol is publicly available: dx.doi.org/10.17504/protocols.io.36wgqn273gk5/v1.

“And” between values parts separate entries of the source, which are not always exact repeats. Equal entries are not always repeated.

T1 sequence (A0A024AXB9 whole entry): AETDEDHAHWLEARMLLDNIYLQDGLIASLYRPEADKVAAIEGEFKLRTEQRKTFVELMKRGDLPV

`O=Cc1ccc(N2CCCCCC2)cc1` yielded an IC50 at Nonstructural protein 3 [1] of 65.8 µM.

On to `O=Cc1nc(-c2ccccc2Cl)n2ccccc12`, for which the IC50 against Nonstructural protein 3 [1] came out at 46.3 µM.

As to `Cc1c(C=O)c2ccccn2c1C(=O)c1ccncc1`, the IC50 at Nonstructural protein 3 [1] was 36.4 µM.

On Nonstructural protein 3 [1], `O=Cc1ccc(N2CCCCC2)cc1` had an IC50 of 49.8 µM.

On Nonstructural protein 3 [1], `CN(C)c1ccc(C=C(C#N)C(N)=O)cc1` had an IC50 of 31 µM.

Compound `Cc1nc(C=O)c2ccccn12` returned an IC50 on Nonstructural protein 3 [1] of 64.5 µM.

`O=Cc1ccc(N2CCC(C(=O)O)CC2)cc1` gave an IC50 against Nonstructural protein 3 [1] of 53.7 µM.

As for `Cc1cc(NS(=O)(=O)c2ccc(S(=O)(=O)F)cc2)c[nH]c1=O`, on Nonstructural protein 3 [1], the IC50 was 13.1 µM.

Consider `O=Cc1ccc(N2CCC(C(=O)O)CC2)o1`, for which it took 30.4 µM to reach half-maximal inhibition against Nonstructural protein 3 [1] (IC50). This IC50 is about 2.3-fold higher than that of the compound before.

As for `O=C(NCC(F)F)[C@H](Nc1ncc2c(n1)CNC2)c1cc(Cl)cc(C2CC2)c1`, the IC50 amounted to 4.19 µM against Nonstructural protein 3 [2] and 19.6 µM against Nonstructural protein 3 [3].

In the case of `Cc1c(C(=O)Nc2ccc3c(c2)C[C@H](C(N)=O)O3)cc(C2CC2)n1C`, the IC50 against Nonstructural protein 3 [2] and on Nonstructural protein 3 [3] was above 25 µM each time.

For the compound `Cc1c(C(=O)Nc2ccc3c(c2)CCC(=O)N3CC2CCC2)cc(C2CC2)n1C`, the IC50 at Nonstructural protein 3 [2] and at Nonstructural protein 3 [3] was above 25 µM each time.

For the compound `Clc1cc(CNc2ncc3c(n2)CNC3)c2cn[nH]c2c1`, the IC50 on Nonstructural protein 3 [2] and against Nonstructural protein 3 [3] was above 25 µM in each case.

On to `CC(C)NC(=O)C[C@H]1NCc2cc(NC(=O)c3cc(Cl)cc4[nH]ncc34)ccc21`, for which the IC50 is 0.185 µM on Nonstructural protein 3 [2]; 1.06 µM and 2.3 µM at Nonstructural protein 3 [3].

`CC[C@H]1CO[C@H](C)CN1c1ccc(C=O)cn1`: the IC50 against Nonstructural protein 3 [1] is 43 µM. This counts as double-digit micromolar.

With `O=C(NCC(F)F)[C@H](Nc1ccc2c(c1)CNC2)c1cc(Cl)cc2cccnc12`, the half-inhibitory concentration (IC50) at Nonstructural protein 3 [2] is 0.016 µM; against Nonstructural protein 3 [3], 0.053 µM and 0.076 µM.

As for `Nc1ccc2ccc(B(O)O)cc2c1`, the IC50 against Nonstructural protein 3 [2] was above 99.5 µM; against Nonstructural protein 3 [1] it was 2.5 µM.

With `CN(C)C(=O)C[C@H]1NCc2cc(NC(=O)c3cc(Cl)cc4[nH]ncc34)ccc21`, the IC50 against Nonstructural protein 3 [2] is 0.481 µM; on Nonstructural protein 3 [3] it was 2.12 µM and 2.36 µM.

Regarding `CS(=O)(=O)NC(=O)C[C@H]1NCc2cc(NC(=O)c3cc(Cl)cc4[nH]ncc34)ccc21`, the half-inhibitory concentration (IC50) at Nonstructural protein 3 [2] is 0.65 µM; at Nonstructural protein 3 [3] it was 2.21 µM and 1.7 µM.

Regarding `CC(C)(C)NC(=O)C[C@H]1NCc2cc(NC(=O)c3cc(Cl)cc4[nH]ncc34)ccc21`, the IC50 against Nonstructural protein 3 [2] is 0.167 µM; against Nonstructural protein 3 [3] it was 1.07 µM and 0.985 µM.

In the case of `CNC(=O)C[C@H]1NCc2cc(NC(=O)c3cc(Cl)cc4[nH]ncc34)ccc21`, the IC50 at Nonstructural protein 3 [2] is 0.187 µM; on Nonstructural protein 3 [3] it was 0.999 µM and 1.08 µM.

With `Cc1c(C(=O)Nc2cc(C3CCOCC3)ccn2)cc(C2CC2)n1C`, the IC50 at Nonstructural protein 3 [2] and against Nonstructural protein 3 [3] was above 25 µM in each case.

Take `N#Cc1cccc(-c2nc3c(C(=O)Nc4ccc(F)cc4)cc(Cl)cc3[nH]2)c1`: the IC50 on Nonstructural protein 3 [2] and at Nonstructural protein 3 [3] was above 25 µM each time.

For the compound `COC(=O)[C@H]1NCc2cc(NC(=O)c3cc(F)cc4[nH]ncc34)ccc21`, the IC50 worked out at 4.84 µM against Nonstructural protein 3 [2] and 21.5 µM on Nonstructural protein 3 [3].

In the case of `COCCN(C)C(=O)[C@H](Nc1ccc2c(c1)CNC2)c1cc(Cl)cc(C2CC2)c1`, the IC50 is 1.21 µM against Nonstructural protein 3 [2] and 4.62 µM against Nonstructural protein 3 [3].

`Cc1c(C=O)c2ccccn2c1C#N` returned an IC50 against Nonstructural protein 3 [1] of 24.9 µM.

For the compound `O=C(NCC(F)F)[C@H](Nc1ccc2c(n1)CNC2)c1cc(Cl)cc(C2CC2)c1`, the IC50 on Nonstructural protein 3 [2] turned out to be 1.33 µM; on Nonstructural protein 3 [3], 5.5 µM.

Consider `O=C([C@H](Nc1ccc2c(c1)CNC2)c1cc(Cl)cc(C2CC2)c1)N1CCOCC1`, for which the IC50 stood at 0.401 µM against Nonstructural protein 3 [2] and 2.1 µM against Nonstructural protein 3 [3].
